1 sequence from US11998596B2 (priority 2019, dated 2024) can be followed below.

The test system of this assay is PBMCs from ASF-convalescent animals. The class given is cell-based, pig.

On to NSTLVIRI, for which the “Responding animals (%)” value was 4/20 (20%) and the “Responding animals (responders/tested)” value was 4/20 (20%).
